Like-named read-outs stand apart in the source and are kept apart here. Square brackets hold non-standard residues; d marks the D form. Peptide text beside a SMILES is read from it. * marks the point of attachment. Myristoyl = CCCCCCCCCCCCCC(=O)*; Orn = NCCC[C@H](N)C(=O)O
How the values were obtained:
C. neoformans H99 [1] = test: microbe, parasite or virus in culture; type: cell-based, Cryptococcus neoformans
Description: (§1) All microdilution assays with fungi were carried out in accordance with CLSI protocols from M27 for yeasts and M38 for filamentous fungi, respectively, unless otherwise specified.[64],[65] Briefly, 96-well plates were charged with RPMI1640 media, with operating volume in the first column, 200 μL, and half operating volume, 100 μL, in the remaining wells. Drug stock solution in DMSO was aliquoted into the first well in each row. Half of the volume in the dosed well was serially diluted 2-fold until column 11. Column 11 was used as the negative growth control, and column 12 was used as the positive growth control. ON yeast cultures in YPD were washed twice in DD-H2O, resuspended in PBS, and adjusted to 5000 cfu/mL in RPMI. The 96-well plate was inoculated with 100 μL aliquots of cell suspension per well. Plates were incubated at 37 °C for 2 days.

C. neoformans MRL862 = test: microbe, parasite or virus in culture; type: cell-based, Cryptococcus neoformans
Description: as §1

C. neoformans Crm1^OE = test: microbe, parasite or virus in culture; type: cell-based, Cryptococcus neoformans; conditions: 48 h
Description: as §1

C. neoformans apt3Δ = test: microbe, parasite or virus in culture; type: cell-based, Cryptococcus neoformans; conditions: 48 h
Description: as §1

C. neoformans apt1Δ = test: microbe, parasite or virus in culture; type: cell-based, Cryptococcus neoformans; conditions: 48 h
Description: as §1

C. neoformans apt4Δ = test: microbe, parasite or virus in culture; type: cell-based, Cryptococcus neoformans; conditions: 48 h
Description: as §1

C. neoformans crm1Δ = test: microbe, parasite or virus in culture; type: cell-based, Cryptococcus neoformans; conditions: 48 h
Description: as §1

C. neoformans cdc50Δ = test: microbe, parasite or virus in culture; type: cell-based, Cryptococcus neoformans; conditions: for MIC: 48 h
Description: as §1

C. neoformans apt2Δ = test: microbe, parasite or virus in culture; type: cell-based, Cryptococcus neoformans; conditions: 48 h
Description: as §1

C. glabrata 2001 [2] = type: cell-based, Candida glabrata; conditions: RPMI1640, 37 °C, 48 h
Description: as §1
(§2) To assess drug synergy, the initial media charged to the plate contained the peptide at twice the final operating concentration; the remaining processing steps were identical to the MIC experiment. Upon addition of 100 μL of inoculant, the final operating concentration was achieved. Control MIC plates were prepared alongside drug synergy plates to account for the day-to-day variability in any individual MIC. FIC index is computed using eq 1. All MIC assays and drug synergy assays were completed with two technical replicates per 96-well plate and a minimum of two biological replicates per drug combination. If a difference in MIC between the two technical replicates on the plate were observed, only the higher concentration was reported as the MIC to reduce the possibility of type 1 error (false positive) [drawing 1] 1

C. glabrata FKS1-S629P = test: microbe, parasite or virus in culture; type: cell-based, Candida glabrata; conditions: 48 h
Description: as §1

C. glabrata 2001 [3] = test: microbe, parasite or virus in culture; type: cell-based, Candida glabrata
Description: as §1

C. glabrata FKS2-S663P = test: microbe, parasite or virus in culture; type: cell-based, Candida glabrata; conditions: 48 h
Description: as §1

C. neoformans H99 [4] = type: cell-based, Cryptococcus neoformans; conditions: RPMI1640, 37 °C; for MIC of antifungal in combination with KKOO / MIC of antifungal in combination with KKOO-NH2: 48 h
Description: as §1, with “Plates were incubated at 37 °C for 2 days.” left out
as §2

[5] = Table S1, unit and conditions not given (MICs elsewhere in μg/mL)
[6] = compound alone, RPMI1640, 37 °C

OC(Cn1cncn1)(Cn1cncn1)c1ccc(F)cc1F [FLC, fluconazole]
16 fold: MIC relative to wild-type strain H99 (higher) (C. neoformans MRL862; RPMI1640, 37 °C, 48 h)
0.5 µg/mL: MIC (C. neoformans apt1Δ; Cryptococcus neoformans)
2 µg/mL: MIC (C. neoformans H99 [1]; Cryptococcus neoformans, H99, compound alone, RPMI1640, 37 °C, 48 h, read-out: MIC) | MIC (C. neoformans apt3Δ; Cryptococcus neoformans) | MIC (C. neoformans apt4Δ; Cryptococcus neoformans) | MIC (C. neoformans crm1Δ; Cryptococcus neoformans) | MIC (C. neoformans apt2Δ; Cryptococcus neoformans) | MIC (C. glabrata FKS1-S629P; Nakaseomyces glabratus, FKS1S629P) | MIC (C. glabrata FKS2-S663P; Nakaseomyces glabratus, FKS2S663P) | MIC of antifungal in combination with (FITC)KKOO (C. neoformans H99 [4]; +0 μg/mL (FITC)KKOO) | MIC of antifungal in combination with KKOO (C. neoformans H99 [4]; +0 μg/mL KKOO (control)) | MIC of antifungal in combination with KKOO-NH2 (C. neoformans H99 [4]; +0 μg/mL KKOO-NH2 (control)) | MIC of antifungal in combination with KKOO-NH2 (C. neoformans H99 [4]; +1 μg/mL KKOO-NH2) | MIC of antifungal in combination with KKOO (C. neoformans H99 [4]; +1 μg/mL KKOO) | MIC of antifungal in combination with KKOO-NH2 (C. neoformans H99 [4]; +2 μg/mL KKOO-NH2) | MIC of antifungal in combination with KKOO (C. neoformans H99 [4]; +2 μg/mL KKOO) | MIC of antifungal in combination with (FITC)KKOO (C. neoformans H99 [4]; +4 μg/mL (FITC)KKOO) | MIC of antifungal in combination with KKOO (C. neoformans H99 [4]; +4 μg/mL KKOO) | MIC of antifungal in combination with (FITC)KKOO (C. neoformans H99 [4]; +8 μg/mL (FITC)KKOO)
4 µg/mL: MIC of antifungal in combination with KKOO (C. glabrata 2001 [2]; +4 μg/mL KKOO) | MIC of antifungal in combination with KKOO (C. glabrata 2001 [2]; +8 μg/mL KKOO)
32 µg/mL: MIC (C. neoformans MRL862; Cryptococcus neoformans, MRL862, compound alone, RPMI1640, 37 °C, 48 h, read-out: MIC)
0.125 µg/mL: MIC (C. neoformans cdc50Δ; Cryptococcus neoformans)
8 µg/mL: MIC of antifungal in combination with KKOO (C. glabrata 2001 [2]; +0 μg/mL KKOO (control)) | MIC of antifungal in combination with KKOO-NH2 (C. glabrata 2001 [2]; +0 μg/mL KKOO-NH2 (control)) | MIC of antifungal in combination with KKOO-NH2 (C. glabrata 2001 [2]; +1 μg/mL KKOO-NH2) | MIC of antifungal in combination with KKOO (C. glabrata 2001 [2]; +1 μg/mL KKOO) | MIC of antifungal in combination with KKOO-NH2 (C. glabrata 2001 [2]; +2 μg/mL KKOO-NH2) | MIC of antifungal in combination with KKOO (C. glabrata 2001 [2]; +2 μg/mL KKOO) | MIC of antifungal in combination with KKOO-NH2 (C. glabrata 2001 [2]; +4 μg/mL KKOO-NH2) | MIC (C. glabrata 2001 [3]; Nakaseomyces glabratus, 2001, compound alone, RPMI1640, 37 °C, 48 h, read-out: MIC)
0.25 µg/mL: MIC (C. neoformans Crm1^OE; Cryptococcus neoformans)
1 µg/mL: MIC of antifungal in combination with KKOO-NH2 (C. neoformans H99 [4]; +4 μg/mL KKOO-NH2) | MIC of antifungal in combination with KKOO (C. neoformans H99 [4]; +8 μg/mL KKOO)

CCCCCCCCCCCCCC(=O)N[C@@H](Cc1c[nH]c2ccccc12)C(=O)NCC(=O)NCC(=O)N[C@H](C(=O)N[C@@H](CCCN)C(=O)N[C@@H](CCCN)C(=O)N[C@@H](CC(N)=O)C(=O)N[C@@H](Cc1ccc(O)cc1)C(=O)N[C@@H](C)C(N)=O)[C@@H](C)CC [KKOO-NH2] (Myristoyl-WGGI[Orn][Orn]NYA-NH2)
8 µg/mL: MIC (C. neoformans H99 [1]; H99, 48 h) | MIC (C. neoformans MRL862; MRL862, 48 h) | MIC (C. glabrata FKS1-S629P; [6]) | MIC (C. glabrata 2001 [3]; 2001, 48 h) | MIC (C. glabrata FKS2-S663P; [6])
4 µg/mL: MIC (C. neoformans Crm1^OE; [6]) | MIC (C. neoformans apt3Δ; [6]) | MIC (C. neoformans apt1Δ; [6]) | MIC (C. neoformans apt4Δ; [6]) | MIC (C. neoformans crm1Δ; [6]) | MIC (C. neoformans cdc50Δ; [6]) | MIC (C. neoformans apt2Δ; [6])
4: MIC (SAR screen peptides) (C. neoformans cdc50Δ; [5])
8: MIC (SAR screen peptides) (C. neoformans H99 [1]; [5]) | MIC (SAR screen peptides) (C. glabrata 2001 [3]; [5])

Reference: paper PMC11555678, “Improved Broad Spectrum Antifungal Drug Synergies with Cryptomycin, a Cdc50-Inspired Antifungal Peptide” (ACS Infectious Diseases, 2024)
